In one series the target is Rho GTPase Rac1/CDC42 (Homo sapiens, UniProt P60953+P63000). The series can be described thus: Inhibition of RAC1/CDC42 in human ovarian cancer cells. Format: cell-based.
The target of series [1] is Serine/threonine-protein kinase PAK 1 (Homo sapiens, UniProt Q13153). The series can be described thus: Inhibition of PAK1 in human A549 cells using myelin basic protein as substrate preincubated for 24 hrs followed by PAK1 immunoprecipation and substrate addition measured after 60 mins by ATP-Glo kinase assay.
The test system of the next series is EMT6. Nature of the series: Cytotoxicity against multidrug-resistant mouse EMT6 cells at 100 uM measured after 24 hrs by MTT assay. Format: functional, cell-based. A general note: Tetrazolium assays rely on reduction of a dye to a coloured formazan, in cell work by metabolically active cells.
Series [2] is described as follows: Inhibition of PAK1/COX2 in human A549 cells harboring Ki-RAS mutant assessed as cell growth inhibition measured after 72 hrs by MTT assay. Format: cell-based. Conditions: A549, 72 h.
The target of series [3] is T1, Prostaglandin G/H synthase 2 (Homo sapiens, UniProt P35354).
T1 sequence (P35354 whole entry): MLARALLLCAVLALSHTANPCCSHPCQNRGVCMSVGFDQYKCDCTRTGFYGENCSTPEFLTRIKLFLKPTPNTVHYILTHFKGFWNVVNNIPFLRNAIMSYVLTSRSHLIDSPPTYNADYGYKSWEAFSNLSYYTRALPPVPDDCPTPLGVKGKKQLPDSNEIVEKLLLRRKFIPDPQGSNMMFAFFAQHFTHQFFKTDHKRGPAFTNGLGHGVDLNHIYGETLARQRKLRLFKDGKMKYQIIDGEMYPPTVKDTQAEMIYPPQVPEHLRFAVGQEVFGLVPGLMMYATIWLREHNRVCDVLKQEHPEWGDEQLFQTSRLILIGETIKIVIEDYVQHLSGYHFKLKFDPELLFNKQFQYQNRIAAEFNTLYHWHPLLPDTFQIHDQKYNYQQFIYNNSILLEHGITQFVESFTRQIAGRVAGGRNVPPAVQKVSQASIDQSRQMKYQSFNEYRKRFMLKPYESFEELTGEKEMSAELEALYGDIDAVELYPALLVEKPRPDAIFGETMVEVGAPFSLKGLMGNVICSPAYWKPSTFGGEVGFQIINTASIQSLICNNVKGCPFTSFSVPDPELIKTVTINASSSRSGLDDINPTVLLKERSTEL
Nature of the series: Inhibition of recombinant human COX2 using arachidonic acid as substrate measured after 2 to 5 mins.

For another series, the system named is B16-F10. Nature of the series: Cytotoxicity against PAK1-independent mouse B16F10 cells assessed as cell growth inhibition measured after 72 hrs by MTT assay. Format: functional, cell-based. As to conditions: B16-F10, 72 h.
The nature of series [4]: Drug-uptake in multidrug-resistant mouse EMT6 cells at 100 uM measured after 1 hr by HPLC method. As to conditions: emt6, 1 h. In kind it is ADME, cell-based.
Series [5] is described as follows: Drug-uptake in multidrug-resistant mouse EMT6 cells at 100 uM measured after 6 hrs by HPLC method. As to conditions: emt6, 6 h. Format: ADME, cell-based.
Series [6] in a line: Drug metabolism in human A549 cells assessed as mitochondrial reductase mediated azo dye formation by colorimetric method. In kind it is ADME, cell-based.
The next series has as its system LIM1899. Nature of the series: Cytotoxicity against human LIM1899 cells up to 100 uM measured after 24 hrs by trypan blue assay. Format: functional, cell-based.
Series [7] is described as follows: Inhibition of PAK1/COX2 in human A549 cells harboring Ki-RAS mutant assessed as cell growth inhibition measured after 72 hrs by trypan blue assay. In kind it is cell-based. As to conditions: A549, 72 h.

Consider three compounds from ChEMBL document CHEMBL4002563 (Eur J Med Chem, 2017).

Active and inactive are the calls of the source. The calls are words filed in the database; no cut-off is given here.

Sequence of Serine/threonine-protein kinase PAK 1 (Q13153 whole entry): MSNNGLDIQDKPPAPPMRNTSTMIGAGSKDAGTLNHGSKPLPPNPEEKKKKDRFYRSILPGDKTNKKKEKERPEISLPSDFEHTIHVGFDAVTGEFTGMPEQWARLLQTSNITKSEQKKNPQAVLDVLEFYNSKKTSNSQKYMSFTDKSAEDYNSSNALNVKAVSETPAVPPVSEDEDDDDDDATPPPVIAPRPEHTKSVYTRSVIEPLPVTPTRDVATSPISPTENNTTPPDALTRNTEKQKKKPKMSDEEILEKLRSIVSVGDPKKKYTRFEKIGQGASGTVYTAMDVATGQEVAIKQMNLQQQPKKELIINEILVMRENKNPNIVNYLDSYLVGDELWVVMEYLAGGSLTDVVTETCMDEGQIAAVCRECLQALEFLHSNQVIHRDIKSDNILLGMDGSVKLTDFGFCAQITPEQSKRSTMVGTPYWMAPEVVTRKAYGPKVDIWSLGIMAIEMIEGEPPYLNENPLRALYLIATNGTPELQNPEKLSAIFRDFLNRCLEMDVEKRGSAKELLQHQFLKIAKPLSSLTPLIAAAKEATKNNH

`O=C(c1ccccc1)c1ccc2n1CCC2C(=O)O` (stereo not given) [KETOROLAC]: the 50% inhibitory concentration (IC50) on Rho GTPase Rac1/CDC42 came out at 2000 nM; in [1], 36000 nM; in series [2], 13000 nM; in series [3], 140 nM; in the series with B16-F10 it was 30000 nM. For the same compound, the outcome with EMT6 was inactive. The compound further registered a Drug uptake in series [4] of 0.37 nmol.

Turning to `O=C(c1ccccc1)c1ccc2n1CC[C@H]2C(=O)O`, on Rho GTPase Rac1/CDC42, the IC50 was 1000 nM.

For the compound `COc1ccccc1-n1cc(COC(=O)C2CCn3c(C(=O)c4ccccc4)ccc32)nn1` (stereo not given), the Drug uptake entry in series [5] was “Not Active”; in series [4] it was 3.75 nmol. Moreover, the Drug metabolism entry in series [6] was “Metabolite_Detected”. Besides, the results for the IC50 in series [1] and in series [7] were 65 nM and 24 nM, respectively. Moreover, the result with LIM1899 and in the series with EMT6 was inactive.

A word on the IC50: it is the concentration that gives 50% inhibition.
